The test system of this test is DOCA-salt hypertensive rat. Put plainly: Deoxycorticosterone acetate (DOCA)-salt hypertensive rat model. The note with it: in vivo. Here is the method: Selected compounds disclosed herein have been tested for activity in the deoxycorticosterone acetate (DOCA)-salt hypertensive rat model. To perform these tests, silastic MDX4-4210 elastomer implants containing 47 mg (DOCA) were prepared according to the method of Ornmsbee et al. ((1973) the J. Pharm. Sci. 62:255-257). Briefly, DOCA is incorporated into silicon rubber implants for sustained release. To prepare the implants the DOCA is incorporated into unpolymerized silicone rubber, catalyst is added and the mixture is cast in a hemicylindrical shape.
Sprague Dawley rats (7-8 weeks old) were unilaterally nephrectomized under ketamine anesthesia and a DOCA-implant was placed on the left lateral dorsal abdomen of the animal. The rats were allowed to recover for three weeks. During recovery they were permitted free access to normal rat chow and 0.9% NaCl drinking solution in place of drinking water. The rats develop hypertension within 3 weeks. […]
On the day of experimentation, catheters were inserted under brevital anesthesia into the right femoral artery for measurement of blood pressure, and into the right femoral vein for administration of a selected compound. The animals were placed in a restrainer and allowed to recover for a minimum of 60 min or until a steady mean arterial blood pressure was recorded. […] Blood pressure was recorded continuously for a further 10 hrs.

As to `CC(=O)c1cc(C)cc(C)c1NC(=O)c1sccc1S(=O)(=O)Nc1onc(C)c1C` [Compound 7, N-(2-acetyl-4,6-dimethylphenyl)-3-{[(3,4 dimethyl-5-isoxazolyl)amino]sulfonyl}-2-thiophenecarboxamide], the “effect on blood pressure in the hypertensive rat model” value is listed as “effective in decreasing blood pressure”.

The values are drawn from patent US6686382B2, “Sulfonamides and derivatives thereof that modulate the activity of endothelin” (Encysive Pharmaceuticals Inc., priority 1999, dated 2004).
